Results reported in ChEMBL document CHEMBL1139899, “Alpha-phenyl-N-tert-butyl nitrone (PBN) derivatives: synthesis and protective action against microvascular damages induced by ischemia/reperfusion” (Bioorg Med Chem, 2007).

How the values were obtained:
[1] = Partition coefficient, log P of the compound; format: physicochemical; conditions: octanol/water
Syrian golden hamster [2] = assay: Protective effect against ischemia/reperfusion-induced microvascular damages in golden hamster assessed as number of leakage site per cm^2 at 3 mg/kg, po after 15 mins by cheek pouch assay; format: functional, Mesocricetus auratus
Syrian golden hamster [3] = assay: Protective effect against ischemia/reperfusion-induced microvascular damages in golden hamster assessed as number of leakage site per cm^2 at 3 mg/kg, po after 10 mins by cheek pouch assay; format: functional, Mesocricetus auratus
Syrian golden hamster [4] = assay: Protective effect against ischemia/reperfusion-induced microvascular damages in golden hamster assessed as number of leakage site per cm^2 at 10 mg/kg, po after 10 mins by cheek pouch assay; format: functional, Mesocricetus auratus
Syrian golden hamster [5] = assay: Protective effect against ischemia/reperfusion-induced microvascular damages in golden hamster assessed as number of leakage site per cm^2 at 10 mg/kg, po after 15 mins by cheek pouch assay; format: functional, Mesocricetus auratus

Compound | logP [1] | Activity (Syrian golden hamster [2]) | Activity (Syrian golden hamster [3]) | Activity (Syrian golden hamster [4]) | Activity (Syrian golden hamster [5])
CC(C)(C)/[N+]([O-])=C/c1cc2c(cc1Br)OCO2 | 1.69 | 109 leakage sites/cm2 | 118 leakage sites/cm2 |  | 
COc1cc(/C=[N+](/[O-])C(C)(C)C)ccc1O | 1.58 | 85 leakage sites/cm2 | 108 leakage sites/cm2 |  | 
CC(C)(C)/[N+]([O-])=C\c1ccco1 | 1.1 | 33 leakage sites/cm2 | 49 leakage sites/cm2 |  | 
Cc1c(C)c2c(c(C)c1O)CC[C@@](C)(CCC[C@H](C)CCC[C@H](C)CCCC(C)C)O2 [ALPHA-TOCOPHEROL] |  |  |  | 50 cm2 | 45 cm2
CC(C)(C)/[N+]([O-])=C\c1ccc2c(c1)OCO2 | 0.57 | 38 leakage sites/cm2 | 44 leakage sites/cm2 |  | 
COc1cc(/C=[N+](/[O-])C(C)(C)C)ccc1OCc1ccccc1 | 2.68 | 35 leakage sites/cm2 | 40 leakage sites/cm2 |  | 
CC(C)(C)/[N+]([O-])=C/c1ccccc1 | 1.5 |  |  |  | 
CC(C)(C)/[N+]([O-])=C\c1ccc([N+](=O)[O-])cc1 | 1.39 | 78 leakage sites/cm2 | 90 leakage sites/cm2 |  | 
CN(C)c1ccc(/C=[N+](/[O-])C(C)(C)C)cc1 | 1.73 | 55 leakage sites/cm2 | 75 leakage sites/cm2 |  | 
CC(C)(C)/[N+]([O-])=C\c1cccnc1 | 0.21 | 60 leakage sites/cm2 | 68 leakage sites/cm2 |  | 
